For 26 compounds, GI50 results are on record in patent US11999716B2, “WDR5 inhibitors and modulators” (priority 2018, dated 2024).

Where only a bound is given, the exact number is not on record here.

The test relates to MV4:11 human cancer cell lines. Kind of test: Cellular viability / anti-proliferative activity, CellTiter-Glo, 5 day protocol. Conditions: Homo sapiens, MV4-11, 120 h, MV4:11 cells; 5 day incubation; CellTiter-Glo; mean of minimum two replicates; read-out: GI50 on cellular proliferation of MV4:11 human cancer cell lines. In kind it is cell-based. An outline of the steps: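 Compounds were tested over 22 two-fold dilutions starting at 30 μM in 0.3% DMSO, with 200 cells per well (7200 cells/mL). Viability was measured by CellTiter-Glo luminescence at day 5.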
In general terms: ATP-based viability assays read luminescence as a measure of living cells.
Take `Cc1nccn1Cc1cc2c(c(-c3cn(C)nc3C(F)(F)F)c1)CCN(CC1CCCCN1C)C2=O` (centres unmarked) [Example 171, 7-((2-Methyl-1H-imidazol-1-yl)methyl)-5-(1-methyl-3-(trifluoromethyl)-1H-pyrazol-4-yl)-2-((1-methylpiperidin-2-yl)methyl)-3,4-dihydroisoquinolin-1(2H)-one]: the GI50 came out at 6900 nM.
The figure for `Cc1nccn1Cc1cc2c(c(-c3cn(C)nc3C(F)(F)F)c1)CCN(CC1CCC(=O)N(C)C1)C2=O` (centres unmarked) [Example 172, 7-((2-Methyl-1H-imidazol-1-yl)methyl)-5-(1-methyl-3-(trifluoromethyl)-1H-pyrazol-4-yl)-2-((1-methyl-6-oxopiperidin-3-yl)methyl)-3,4-dihydroisoquinolin-1(2H)-one] is 221 nM; for `Cc1nccn1Cc1cc2c(c(-c3cn(C)nc3C(F)(F)F)c1)CCN(CC1CCOCC1)C2=O` [Example 173, 7-((2-Methyl-1H-imidazol-1-yl)methyl)-5-(1-methyl-3-(trifluoromethyl)-1H-pyrazol-4-yl)-2-((tetrahydro-2H-pyran-4-yl)methyl)-3,4-dihydroisoquinolin-1(2H)-one] it is 3910 nM; for `Cc1nnc(CN2CCc3c(cc(Cn4ccnc4C)cc3-c3cn(C)nc3C(F)(F)F)C2=O)s1` [Example 174, 2-((5-Methyl-1,3,4-thiadiazol-2-yl)methyl)-7-((2-methyl-1H-imidazol-1-yl)methyl)-5-(1-methyl-3-(trifluoromethyl)-1H-pyrazol-4-yl)-3,4-dihydroisoquinolin-1(2H)-one] it is 329 nM.
The figure for `CCc1ccnc([C@H](C)N2CCc3c(cc(Cn4ccnc4C)cc3-c3cn(C)nc3C(F)(F)F)C2=O)c1` [Example 175, (S)-2-(1-(4-Ethylpyridin-2-yl)ethyl)-7-((2-methyl-1H-imidazol-1-yl)methyl)-5-(1-methyl-3-(trifluoromethyl)-1H-pyrazol-4-yl)-3,4-dihydroisoquinolin-1(2H)-one] is under 50 nM; for `Cc1nccn1Cc1cc2c(c(-c3cn(C)nc3C(F)(F)F)c1)CCN(Cc1ccc3ccccc3n1)C2=O` [Example 176, 7-((2-Methyl-1H-imidazol-1-yl)methyl)-5-(1-methyl-3-(trifluoromethyl)-1H-pyrazol-4-yl)-2-(quinolin-2-ylmethyl)-3,4-dihydroisoquinolin-1(2H)-one] it is 293 nM.
To `CCn1cc(-c2cc(Cn3ccnc3C)cc3c2CCN([C@H](c2cc(C)ccn2)C2CC2)C3=O)c(C(F)(F)F)n1` [Example 177, (S)-2-(Cyclopropyl(4-methylpyridin-2-yl)methyl)-5-(1-ethyl-3-(trifluoromethyl)-1H-pyrazol-4-yl)-7-((2-methyl-1H-imidazol-1-yl)methyl)-3,4-dihydroisoquinolin-1(2H)-one] belongs under 50 nM.
As to `CCn1cc(-c2cc(Cn3cnc(C)c3C)cc3c2CCN([C@@H](C)c2cc(OC)ccn2)C3=O)c(C(F)(F)F)n1` [Example 178, (S)-7-((4,5-Dimethyl-1H-imidazol-1-yl)methyl)-5-(1-ethyl-3-(trifluoromethyl)-1H-pyrazol-4-yl)-2-(1-(4-methoxypyridin-2-yl)ethyl)-3,4-dihydroisoquinolin-1(2H)-one], the GI50 worked out at 152 nM.
The figure for `CCn1cc(-c2cc(Cn3ccnc3C#N)cc3c2CCN([C@@H](C)c2cc(OC)ccn2)C3=O)c(C(F)(F)F)n1` [Example 179] is 9640 nM; for `Cc1nccn1Cc1cc2c(c(-c3cn(C)nc3C(F)(F)F)c1)CCN(Cc1ccccn1)C2=O` [Example 180, 7-((2-Methyl-1H-imidazol-1-yl)methyl)-5-(1-methyl-3-(trifluoromethyl)-1H-pyrazol-4-yl)-2-(pyridin-2-ylmethyl)-3,4-dihydroisoquinolin-1(2H)-one] it is 1590 nM.
For `Cc1cccnc1CN1CCc2c(cc(Cn3ccnc3C)cc2-c2cn(C)nc2C(F)(F)F)C1=O` [Example 181, 7-((2-Methyl-1H-imidazol-1-yl)methyl)-5-(1-methyl-3-(trifluoromethyl)-1H-pyrazol-4-yl)-2-((3-methylpyridin-2-yl)methyl)-3,4-dihydroisoquinolin-1(2H)-one], the GI50 was 3460 nM.
With `Cc1ccnc([C@H](C2CC2)N2CCc3c(cc(Cn4ccnc4)cc3-c3ccc(F)cc3C)C2=O)c1` [Example 184, (S)-7-((1H-Imidazol-1-yl)methyl)-2-(cyclopropyl(4-methylpyridin-2-yl)methyl)-5-(4-fluoro-2-methylphenyl)-3,4-dihydroisoquinolin-1(2H)-one], the GI50 is 125 nM.
The figure for `Cc1cc([C@H](C)N2CCc3c(cc(Cn4ccnc4)cc3-c3cn(C)nc3C(F)(F)F)C2=O)ncc1F` [Example 185, (S)-7-((1H-Imidazol-1-yl)methyl)-2-(1-(5-fluoro-4-methylpyridin-2-yl)ethyl)-5-(1-methyl-3-(trifluoromethyl)-1H-pyrazol-4-yl)-3,4-dihydroisoquinolin-1(2H)-one] is under 50 nM; for `CCn1cc(CN2CCc3c(cc(Cn4ccnc4C)cc3-c3cn(C)nc3C(F)(F)F)C2=O)c2ccccc21` [Example 187, 2-((1-Ethyl-1H-indol-3-yl)methyl)-7-((2-methyl-1H-imidazol-1-yl)methyl)-5-(1-methyl-3-(trifluoromethyl)-1H-pyrazol-4-yl)-3,4-dihydroisoquinolin-1(2H)-one] it is 591 nM; for `Cc1nnc(CN2CCc3c(cc(Cn4ccnc4C)cc3-c3cn(C)nc3C(F)(F)F)C2=O)o1` [Example 188, 2-((5-Methyl-1,3,4-oxadiazol-2-yl)methyl)-7-((2-methyl-1H-imidazol-1-yl)methyl)-5-(1-methyl-3-(trifluoromethyl)-1H-pyrazol-4-yl)-3,4-dihydroisoquinolin-1(2H)-one] it is 730 nM.
For the compound `Cc1nccn1Cc1cc2c(c(-c3cn(C)nc3C(F)(F)F)c1)CCN(Cc1cn(C)c3ccccc13)C2=O` [Example 189, 7-((2-Methyl-1H-imidazol-1-yl)methyl)-2-((1-methyl-1H-indol-3-yl)methyl)-5-(1-methyl-3-(trifluoromethyl)-1H-pyrazol-4-yl)-3,4-dihydroisoquinolin-1(2H)-one], the GI50 was determined as 1000 nM.
To `Cc1cc(CN2CCc3c(cc(Cn4ccnc4C)cc3-c3cn(C)nc3C(F)(F)F)C2=O)on1` [Example 190, 7-((2-Methyl-1H-imidazol-1-yl)methyl)-5-(1-methyl-3-(trifluoromethyl)-1H-pyrazol-4-yl)-2-((3-methylisoxazol-5-yl)methyl)-3,4-dihydroisoquinolin-1(2H)-one] belongs 349 nM; to `CCc1ccnc([C@H](C)N2CCc3c(cc(Cn4ccnc4)cc3-c3cn(C)nc3C(F)(F)F)C2=O)c1` [Example 191, (S)-7-((1H-Imidazol-1-yl)methyl)-2-(1-(4-ethylpyridin-2-yl)ethyl)-5-(1-methyl-3-(trifluoromethyl)-1H-pyrazol-4-yl)-3,4-dihydroisoquinolin-1(2H)-one], under 50 nM; to `COc1ccnc([C@H](C)N2CCc3c(cc(Cn4ccnc4C)cc3-c3cccnc3C(F)(F)F)C2=O)c1` [Example 192, (S)-2-(1-(4-Methoxypyridin-2-yl)ethyl)-7-((2-methyl-1H-imidazol-1-yl)methyl)-5-(2-(trifluoromethyl)pyridin-3-yl)-3,4-dihydroisoquinolin-1(2H)-one], 77 nM.
The figure for `Cc1nccn1Cc1cc2c(c(-c3cn(C)nc3C(F)(F)F)c1)CCN(Cc1cn(C(C)C)c3ccccc13)C2=O` [Example 193, 2-((1-Isopropyl-1H-indol-3-yl)methyl)-7-((2-methyl-1H-imidazol-1-yl)methyl)-5-(1-methyl-3-(trifluoromethyl)-1H-pyrazol-4-yl)-3,4-dihydroisoquinolin-1(2H)-one] is 2330 nM; for `Cc1cnc(CN2CCc3c(cc(Cn4ccnc4C)cc3-c3cn(C)nc3C(F)(F)F)C2=O)o1` [Example 194, 7-((2-Methyl-1H-imidazol-1-yl)methyl)-5-(1-methyl-3-(trifluoromethyl)-1H-pyrazol-4-yl)-2-((5-methyloxazol-2-yl)methyl)-3,4-dihydroisoquinolin-1(2H)-one] it is 252 nM; for `Cc1cnc(CN2CCc3c(cc(Cn4ccnc4C)cc3-c3cn(C)nc3C(F)(F)F)C2=O)s1` [Example 195, 7-((2-Methyl-1H-imidazol-1-yl)methyl)-5-(1-methyl-3-(trifluoromethyl)-1H-pyrazol-4-yl)-2-((5-methylthiazol-2-yl)methyl)-3,4-dihydroisoquinolin-1(2H)-one] it is 217 nM.
Consider `COc1ccnc([C@H](C)N2CCc3c(cc(Cn4ccnc4C)cc3-c3cnccc3C)C2=O)c1` [Example 196, (S)-2-(1-(4-Methoxypyridin-2-yl)ethyl)-7-((2-methyl-1H-imidazol-1-yl)methyl)-5-(4-methylpyridin-3-yl)-3,4-dihydroisoquinolin-1(2H)-one], for which the GI50 amounted to 936 nM.
The figure for `Cc1cncc([C@@H](C)N2CCc3c(cc(Cn4ccnc4C)cc3-c3cn(C)nc3C(F)(F)F)C2=O)c1` [Example 197, (R)-7-((2-Methyl-1H-imidazol-1-yl)methyl)-5-(1-methyl-3-(trifluoromethyl)-1H-pyrazol-4-yl)-2-(1-(5-methylpyridin-3-yl)ethyl)-3,4-dihydroisoquinolin-1(2H)-one] is under 50 nM; for `CC[C@H](c1cncc(C)c1)N1CCc2c(cc(Cn3ccnc3C)cc2-c2cn(C)nc2C(F)(F)F)C1=O` [Example 198, (R)-7-((2-Methyl-1H-imidazol-1-yl)methyl)-5-(1-methyl-3-(trifluoromethyl)-1H-pyrazol-4-yl)-2-(1-(5-methylpyridin-3-yl)propyl)-3,4-dihydroisoquinolin-1(2H)-one] it is 62 nM; for `CC[C@@H](c1cncc(C)c1)N1CCc2c(cc(Cn3ccnc3C)cc2-c2cn(C)nc2C(F)(F)F)C1=O` [Example 199, (S)-7-((2-Methyl-1H-imidazol-1-yl)methyl)-5-(1-methyl-3-(trifluoromethyl)-1H-pyrazol-4-yl)-2-(1-(5-methylpyridin-3-yl)propyl)-3,4-dihydroisoquinolin-1(2H)-one] it is under 50 nM.
